# Experimental data published in patent publication US10238688B2, “Combination therapies for bladder cancer” (GENEDIA BIOTECH CO. LTD., priority 2015, dated 2019).
# How the values were obtained:
# [1] = tested on: Cell Cycle/pRb-E2F pathway; assay: Cignal Finder dual-luciferase pathway reporter, Cell Cycle/pRb-E2F; format: cell-based, human; set-up: key to Relative activity, Cell Cycle/pRb-E2F reporter: firefly/renilla ratio, background (negative control) subtracted; settings: for Relative activity, Cell Cycle/pRb-E2F reporter: luc/Renluc relative to negative control reporter, single drug at 4 folds vs EH/Ci/Mi combination
# Procedure: (§1) The pathway analysis was performed with Qiagen's Cignal Finder Pathway Reporter Array systems according to the manufacturer's instructions. The pathway-focused dual-luciferase reporter construct was a mixture of an inducible transcription factor responsive firefly luciferase reporter and constitutively expressing renilla construct. Transcriptional response element (TRE) sequence response elements to each specific transcriptional factor triggered by the different signaling pathways are positioned before the TATA box of firefly luciferase reporter gene. The extent of activity of the reporter reflects the level of activity of the particular signaling pathway. CMV controlled renilla expression vector is co-transfected into the cell as an internal control. Non-inducible reporter construct that lacks the transcriptional factor binding sequence and could not be induced by any transcription factors is used as a negative control. Cells transfected with CMV directed firefly luciferase reporter gene serve as a positive control. Briefly, cells seeded in 6-well plates were transfected with Cignal finder pathway arrays according to the manufacturer's instructions (Qiagen). Then cells were seeded onto 96-well plates. Ci (6000 ng/mL), Mi (800 ng/mL), or EH (1000 ng/mL) and Ci/Mi/EH combination (Ci, 1500 ng/mL, Mi, 800 ng/mL and EH, 1000 ng/m L) were then added to the cells 24 h post-transfection. After 6 h of incubation with the different drugs at 37° C., cells were lysed and a dual luciferase assay (for firefly and renilla luciferase) was performed using a PromegaGloMax 20/20 illuminometer. The firefly luciferase activities were normalized over the renilla luciferase activities after background activity determined by luciferase activities of negative controls was subtracted. A triple test of cell survival under these drug doses was also performed by MTT assay following 18 h incubation at 37° C. […]
# Myc/Max pathway = assay: Cignal Finder dual-luciferase pathway reporter, Myc/Max; format: cell-based, human; settings: for Relative activity, Myc/Max reporter: luc/Renluc relative to negative control reporter, single drug at 4 folds vs EH/Ci/Mi combination
# Procedure: as §1, with “Ci (6000 ng/mL), Mi (800 ng/mL), or EH (1000 ng/mL) and Ci/Mi/EH combination (Ci, 1500 ng/mL, Mi, 800 ng/mL and EH, 1000 ng/m L) were then added to the cells 24 h post-transfection.” left out
# [2] = tested on: Ki67-positive cells in tumor xenografts; assay: Ki67 immunohistochemistry of tumor xenografts; format: in vivo, BALB/C male nude mice; settings: relative to PBS controls; day 28
# Procedure: Immunostaining was performed on 5 μm slices of formalin fixed paraffin-embedded tumor xenografts using antibodies from Gene Tech Company (Shanghai, China) against both Ki67 and CD34. Pictures were taken by LEICA DM 4000B microscope and the relative level of each protein was calculated using LEICA software. The relative staining per antibody (in percentage) in the […] tumors was calculated and plotted.
# This example then compared the in vivo anticancer activity of EH/Ci/Mi regimen with its mono- and bi-drug counterparts on the 5637, UM-UC-3, or Biu87 cells derived tumor xenografts in nude mice. Since there is no established conversion rule for the drug dose in cell culture to in nude mice, this example used 75 μg per mouse for the mono-drug treatments and 25 μg per drug per mouse for both bi-drug and tri-drug combinations, based on the maximum tolerated drug dose recommended for these drugs. To minimize the inter-mouse bias's effect on tumor growth, three different BCa cell line-derived tumor xenografts were individually established subcutaneously on the back of the twelve mice (FIG. 5A). […] The tumor volumes were measured once every three days and were normalized by the volume on day 7. […]
smiles,measurement,setting,value
"N.N.[Cl][Pt][Cl] [Ci, (SP-4-2)-diamminedichloroplatinum(II)]","relative drug trigged pathway activity over the no-drug level, Cell Cycle/pRb-E2F",[1]; 5637 cells,1.95 fold
same,"Relative activity, Cell Cycle/pRb-E2F reporter",[1]; 5637 cells,1.77
same,"digitalized pathway activity, Cell Cycle/pRb-E2F",[1]; Biu87 cells,0 (null (0) if neither of the above holds)
same,"relative drug trigged pathway activity over the no-drug level, Cell Cycle/pRb-E2F",[1]; Biu87 cells,0.55 fold
same,"Relative activity, Cell Cycle/pRb-E2F reporter",[1]; Biu87 cells,0.31
same,"digitalized pathway activity, Cell Cycle/pRb-E2F",[1]; H-bc cells,0 (null (0) if neither of the above holds)
same,"relative drug trigged pathway activity over the no-drug level, Cell Cycle/pRb-E2F",[1]; H-bc cells,0.51 fold
same,"Relative activity, Cell Cycle/pRb-E2F reporter",[1]; H-bc cells,5.86
same,"relative drug trigged pathway activity over the no-drug level, Cell Cycle/pRb-E2F",[1]; SV-HUC-1 cells,1.71 fold
same,"Relative activity, Cell Cycle/pRb-E2F reporter",[1]; SV-HUC-1 cells,8.40
same,"Relative activity, Cell Cycle/pRb-E2F reporter",[1]; UM-UC-3 cells,2.29
same,"relative drug trigged pathway activity over the no-drug level, Cell Cycle/pRb-E2F",[1]; Um-Uc-3 cells,0.39 fold
same,"digitalized pathway activity, Myc/Max",Myc/Max pathway; 5637 cells,0 (null (0) if neither of the above holds)
same,"relative drug trigged pathway activity over the no-drug level, Myc/Max",Myc/Max pathway; 5637 cells,1.05 fold
same,"Relative activity, Myc/Max reporter",Myc/Max pathway; 5637 cells,11.64
same,"digitalized pathway activity, Myc/Max",Myc/Max pathway; Biu87 cells,0 (null (0) if neither of the above holds)
same,"relative drug trigged pathway activity over the no-drug level, Myc/Max",Myc/Max pathway; Biu87 cells,0.56 fold
same,"Relative activity, Myc/Max reporter",Myc/Max pathway; Biu87 cells,4.60
same,"digitalized pathway activity, Myc/Max",Myc/Max pathway; H-bc cells,0 (null (0) if neither of the above holds)
same,"relative drug trigged pathway activity over the no-drug level, Myc/Max",Myc/Max pathway; H-bc cells,1.03 fold
same,"Relative activity, Myc/Max reporter",Myc/Max pathway; H-bc cells,50.23
same,"digitalized pathway activity, Myc/Max",Myc/Max pathway; SV-HUC-1 cells,0 (null (0) if neither of the above holds)
same,"relative drug trigged pathway activity over the no-drug level, Myc/Max",Myc/Max pathway; SV-HUC-1 cells,1 fold
same,"Relative activity, Myc/Max reporter",Myc/Max pathway; SV-HUC-1 cells,109.70
same,"Relative activity, Myc/Max reporter",Myc/Max pathway; UM-UC-3 cells,24.42
same,"relative drug trigged pathway activity over the no-drug level, Myc/Max",Myc/Max pathway; Um-Uc-3 cells,0.42 fold
same,percentage of Ki67-positive cells in tumor xenografts,[2],reduced
